Source: publication PMC9570838, “JND4135, a New Type II TRK Inhibitor, Overcomes TRK xDFG and Other Mutation Resistance In Vitro and In Vivo” (Molecules, 2022)

Legend:
TRKA = biological target: T1, TRKA (Homo sapiens, UniProt P04629); assay: FRET-based Z'-Lyte kinase assay; assay type: biochemical; settings: mean ± SD, read-out: IC50 TRKA kinase inhibition
T1 construct: purchased Invitrogen

[1] = test system: TRKs-xDGF mutants TRKA-G667C, TRKB-G709C and TRKC-G696C in stable BaF3 models; assay: Western blot of xDFG mutant TRK signal pathway (Figure S2); assay type: cell-based, Murine; settings: 6 h
Method: Cells were treated with various concentrations of each tested compound for a designated time. Then cells were lysed using 1 × SDS sample lysis buffer (CST recommended) with protease and phosphatase inhibitors. […] The films were blocked with 5% fat-free milk in TBS solution containing 0.5% Tween-20 for 4 h at room temperature, then incubated with the corresponding primary antibody (1:1000–1:200) overnight at 4 °C. After washing with TBST, HRP-conjugated secondary antibody was incubated for 2 h. The protein signals were visualized by ECL Western Blotting Detection Kit (Thermo Scientific, Waltham, MA, USA), and detected with Amersham Imager 600 system (GE, Boston, MA, USA).

[2] = test system: BaF3-CD74-TRKA-G667C xenograft; assay: BaF3-CD74-TRKA-G667C xenograft model; assay type: in vivo; settings: for TGI (tumor growth inhibition): intraperitoneally once daily, 12 consecutive days
Parental BaF3 (+IL3) = assay: BaF3 cell proliferation, CCK-8 assay; settings: Mus musculus, BaF3, 72 h, read-out: IC50 (nM ± SD) Parental BaF3 (+IL3)
Method: (§1) Murine BaF3 cells were purchased from JRCB cell bank. The BaF3 cell lines, which stably express natively-fused TRKA/B/C or various point mutants, were self-established by following previously described procedures. Briefly, NTRK genes were totally synthesized and cloned into pCDNA3.1(+) vectors (Invitrogen, Carlsbad, CA, USA). […] Stable strains were established by selection of cells 2 weeks post-transfection with 800 μg/mL G418 (Merck, Whitehouse Station, NJ) and further selection after the withdrawal of interleukin-3 (IL-3, R&D) for 2 weeks. All of BaF3 stable cell lines were verified by DNA sequencing, protein expression and anti-proliferation activity against positive drugs. […] All cells were grown at 37 °C in a humidified 5% CO2 atmosphere.
(§2) Cells were placed in 96-well plates (5000~8000/well) in complete medium. […] IC50 values were calculated by concentration-response curve fitting using GraphPad Prism 5.0 software. Each IC50 value is expressed as mean ± SD.

BaF3 CD74-TRKA = assay: BaF3 cell proliferation, CCK-8 assay; settings: Mus musculus, BaF3, 72 h, read-out: IC50 (nM ± SD) WT CD74-TRKA
Method: as §1, §2

BaF3 EML4-TRKC = assay: BaF3 cell proliferation, CCK-8 assay; settings: Mus musculus, BaF3, 72 h, read-out: IC50 (nM ± SD) WT EML4-TRKC
Method: as §1, §2

BaF3 ETV6-TRKC = assay: BaF3 cell proliferation, CCK-8 assay; settings: Mus musculus, BaF3, 72 h, read-out: IC50 (nM ± SD) WT ETV6-TRKC
Method: as §1, §2

BaF3 CD74-TRKA-G595R = assay: BaF3 cell proliferation, CCK-8 assay; settings: Mus musculus, BaF3, 72 h, read-out: IC50 (nM ± SD) Solvent Front CD74-TRKA-G595R
Method: as §1, §2

BaF3 ETV6-TRKB-G639R = assay: BaF3 cell proliferation, CCK-8 assay; settings: Mus musculus, BaF3, 72 h, read-out: IC50 (nM ± SD) Solvent Front ETV6-TRKB-G639R
Method: as §1, §2

BaF3 ETV6-TRKC-G623R = assay: BaF3 cell proliferation, CCK-8 assay; settings: Mus musculus, BaF3, 72 h, read-out: IC50 (nM ± SD) Solvent Front ETV6-TRKC-G623R
Method: as §1, §2

BaF3 ETV6-TRKB-F633L = assay: BaF3 cell proliferation, CCK-8 assay; settings: Mus musculus, BaF3, 72 h, read-out: IC50 (nM ± SD) Gatekeeper ETV6-TRKB-F633L
Method: as §1, §2

BaF3 ETV6-TRKC-F617L = assay: BaF3 cell proliferation, CCK-8 assay; settings: Mus musculus, BaF3, 72 h, read-out: IC50 (nM ± SD) Gatekeeper ETV6-TRKC-F617L
Method: as §1, §2

BaF3 CD74-TRKA-G667C = assay: BaF3 cell proliferation, CCK-8 assay; settings: Mus musculus, BaF3, 72 h, read-out: IC50 (nM ± SD) xDFG CD74-TRKA-G667C
Method: as §1, §2

BaF3 ETV6-TRKB-G709C = assay: BaF3 cell proliferation, CCK-8 assay; settings: Mus musculus, BaF3, 72 h, read-out: IC50 (nM ± SD) xDFG ETV6-TRKB-G709C
Method: as §1, §2

[3] = test system: BaF3 cells harboring wild-type TRKA/B/C; assay: BaF3 cell proliferation, summary over wild-type lines; settings: Mus musculus, BaF3, read-out: IC50 range in BaF3 cells harboring wild-type TRKA/B/C
Text: Murine BaF3 cells were purchased from JRCB cell bank. The BaF3 cell lines, which stably express natively-fused TRKA/B/C or various point mutants, were self-established by following previously described procedures. Briefly, NTRK genes were totally synthesized and cloned into pCDNA3.1(+) vectors (Invitrogen, Carlsbad, CA, USA). The pCDNA3.1(+) plasmids containing different NTRK-fusion genes were introduced into BaF3 cells by electroporation (Amaxa Nucleofector II device) using the “Amaxa Cell Line Nucleofector Kit V” (VCA-1003) according to the manufacturer’s directions. Stable strains were established by selection of cells 2 weeks post-transfection with 800 μg/mL G418 (Merck, Whitehouse Station, NJ) and further selection after the withdrawal of interleukin-3 (IL-3, R&D) for 2 weeks. All of BaF3 stable cell lines were verified by DNA sequencing, protein expression and anti-proliferation activity against positive drugs. […]
as §2

[4] = test system: BaF3 cells with gatekeeper mutations (TRKA^F589L, TRKB^F663L, TRKC^F617L); assay: BaF3 cell proliferation, summary over gatekeeper lines; settings: Mus musculus, BaF3, read-out: IC50 in cells with gatekeeper mutations
Method: as §1, §2

T1 sequence (P04629 33-796): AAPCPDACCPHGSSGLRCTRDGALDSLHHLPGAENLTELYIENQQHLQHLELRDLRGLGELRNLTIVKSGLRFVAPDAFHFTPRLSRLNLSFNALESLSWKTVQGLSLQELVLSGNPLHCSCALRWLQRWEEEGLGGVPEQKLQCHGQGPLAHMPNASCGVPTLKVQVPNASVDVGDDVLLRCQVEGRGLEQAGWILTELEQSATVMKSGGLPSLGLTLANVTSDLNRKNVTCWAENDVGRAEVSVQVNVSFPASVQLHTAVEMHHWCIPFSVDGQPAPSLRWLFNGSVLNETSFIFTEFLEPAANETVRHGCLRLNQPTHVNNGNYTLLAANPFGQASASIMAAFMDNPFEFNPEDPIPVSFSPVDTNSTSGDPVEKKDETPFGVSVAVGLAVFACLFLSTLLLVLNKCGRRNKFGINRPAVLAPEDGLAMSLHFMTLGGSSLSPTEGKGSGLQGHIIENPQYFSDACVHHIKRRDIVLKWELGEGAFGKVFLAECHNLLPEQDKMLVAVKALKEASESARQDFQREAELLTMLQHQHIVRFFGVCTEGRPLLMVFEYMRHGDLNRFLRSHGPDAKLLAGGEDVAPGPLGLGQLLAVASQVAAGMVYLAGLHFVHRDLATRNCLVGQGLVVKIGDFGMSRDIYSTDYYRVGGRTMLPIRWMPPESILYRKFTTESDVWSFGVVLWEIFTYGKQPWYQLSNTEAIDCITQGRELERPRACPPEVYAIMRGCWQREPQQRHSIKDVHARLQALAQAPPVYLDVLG

Structure (SMILES): Cc1c(C#Cc2cnc3cnc(-c4ccc(N)cc4)cn23)cccc1C(=O)Nc1cc(CN2CCN(C)CC2)cc(C(C)C)c1 [JND4135, 3-((6-(4-aminophenyl)imidazo[1,2-a]pyrazin-3-yl)ethynyl)-N-(3-isopropyl-5-((4-methylpiperazin-1-yl)methyl)phenyl)-2-methylbenzamide]
- IC50 (TRKA): 2.79 ± 1.17 nM
- dose that effectively inhibits the activation of TRKs-xDGF mutants [1]: 8.0 nM
- TGI (tumor growth inhibition) ([2]; 20 mg/kg): 34.2%
- TGI (tumor growth inhibition) ([2]; 40 mg/kg): 81.0%
- tolerability (mortality, body weight) ([2]; 20 and 40 mg/kg/day, 12 days): no mortality or significant body weight loss
- activation of TRKA and downstream molecules PLCγ-1 and ERK in tumor tissues ([2]; tumor tissues at end of treatment, Western blot): effectively inhibit
- IC50 (Parental BaF3 (+IL3)): 1950 ± 25.1 nM
- IC50 (BaF3 CD74-TRKA): 10.4 ± 3.2 nM
- IC50 (BaF3 EML4-TRKC): 13.2 ± 2.6 nM
- IC50 (BaF3 ETV6-TRKC): 10.4 ± 4 nM
- IC50 (BaF3 CD74-TRKA-G595R): 33.7 ± 7.1 nM
- IC50 (BaF3 ETV6-TRKB-G639R): 10.1 ± 3.9 nM
- IC50 (BaF3 ETV6-TRKC-G623R): 9.4 ± 2.6 nM
- IC50 (BaF3 ETV6-TRKB-F633L): 178 ± 4.3 nM
- IC50 (BaF3 ETV6-TRKC-F617L): 37.3 ± 14 nM
- IC50 (BaF3 CD74-TRKA-G667C): 1.4 ± 0.2 nM
- IC50 (BaF3 ETV6-TRKB-G709C): 18.7 ± 2.9 nM
- IC50 [3]: 2.4 to 23.1 nM
- IC50 [4]: 37.3 to 178 nM
